Assay results reported in US11845747B2, “Ester and carbonate pyrimidine compounds as JAK kinase inhibitors” (priority 2019, dated 2023).

How the values were obtained:
[1] = system: IL-2 stimulated STAT5 phosphorylation in Tall-1 human T cell line (JAK1/3); assay: Inhibition of IL-2 stimulated pSTAT5 in Tall-1 T cells; assay type: cell-based; conditions: IL-2 300 ng/mL, AlphaLisa, read-out: Tall-1 IL2 pSTAT5 (pIC50) (converted)
Protocol: Assay 2: Inhibition of IL-2 Stimulated pSTAT5 in Tall-1 T Cells
The potency of test compounds for inhibition of interleukin-2 (IL-2) stimulated STATS phosphorylation was measured in the Tall-1 human T cell line (DSMZ) using AlphaLisa. Because IL-2 signals through JAK1/3, this assay provides a measure of JAK1/3 cellular potency.
Phosphorylated STAT5 was measured via the AlphaLISA SureFire Ultra pSTAT5 (Tyr694/699) kit (PerkinElmer). Human T cells from the Tall-1 cell line were cultured in a 37° C., 5% CO2 humidified incubator in RPMI (Life Technologies) supplemented with 15% Heat Inactivated Fetal Bovine Serum (FBS, Life Technologies), 2 mM Glutamax (Life Technologies), 25 mM HEPES (Life Technologies) and 1× Pen/Strep (Life Technologies). Compounds were serially diluted in DMSO and dispensed acoustically to empty wells. Assay media (phenol red-free DMEM (Life Technologies) supplemented with 10% FBS (ATCC)) was dispensed (4 μL/well) and plates shaken at 900 rpm for 10 mins. Cells were seeded at 45,000 cells/well in assay media (4 μL/well), and incubated at 37° C., 5% CO2 for 1 hour, followed by the addition of IL-2 (R&D Systems; final concentration 300 ng/mL) in pre-warmed assay media (4 μL) for 30 minutes. After cytokine stimulation, cells were lysed with 6 ul of 3× AlphaLisa Lysis Buffer (PerkinElmer) containing 1× PhosStop and Complete tablets (Roche). The lysate was shaken at 900 rpm for 10 minutes at room temperature (RT). Phosphorylated STAT5 was measured via the pSTAT5 AlphaLisa kit (PerkinElmer). Freshly prepared acceptor bead mixture was dispensed onto lysate (5 μL) under green filtered <100 lux light. Plates were shaken at 900 rpm for 2 mins, briefly spun down, and incubated for 2 hrs at RT in the dark. Donor beads were dispensed (5 μL) under green filtered <100 lux light. Plates were shaken at 900 rpm for 2 minutes, briefly spun down, and incubated overnight at RT in the dark. Luminescence was measured with excitation at 689 nm and emission at 570 nm using an EnVision plate r reader (PerkinElmer) under green filtered <100 lux light.
To determine the inhibitory potency of test compounds in response to IL-2, the average emission intensity of beads bound to pSTAT5 was measured in a human T cell line. IC50 values were determined from analysis of the inhibition curves of signal intensity versus compound concentration. Data are expressed as pIC50 (negative decadic logarithm IC50) values (mean±standard deviation).

[2] = target: T1, JAK3 (Homo sapiens, UniProt P52333); assay: Biochemical LanthaScreen JAK3 kinase assay; conditions: Km ATP 1.6 μM; pKi from pIC50 by Cheng-Prusoff; read-out: JAK 3 (pKi) (converted)
T1 construct: GST; purchased Life Technologies
T1 sequence (P52333 1-1124): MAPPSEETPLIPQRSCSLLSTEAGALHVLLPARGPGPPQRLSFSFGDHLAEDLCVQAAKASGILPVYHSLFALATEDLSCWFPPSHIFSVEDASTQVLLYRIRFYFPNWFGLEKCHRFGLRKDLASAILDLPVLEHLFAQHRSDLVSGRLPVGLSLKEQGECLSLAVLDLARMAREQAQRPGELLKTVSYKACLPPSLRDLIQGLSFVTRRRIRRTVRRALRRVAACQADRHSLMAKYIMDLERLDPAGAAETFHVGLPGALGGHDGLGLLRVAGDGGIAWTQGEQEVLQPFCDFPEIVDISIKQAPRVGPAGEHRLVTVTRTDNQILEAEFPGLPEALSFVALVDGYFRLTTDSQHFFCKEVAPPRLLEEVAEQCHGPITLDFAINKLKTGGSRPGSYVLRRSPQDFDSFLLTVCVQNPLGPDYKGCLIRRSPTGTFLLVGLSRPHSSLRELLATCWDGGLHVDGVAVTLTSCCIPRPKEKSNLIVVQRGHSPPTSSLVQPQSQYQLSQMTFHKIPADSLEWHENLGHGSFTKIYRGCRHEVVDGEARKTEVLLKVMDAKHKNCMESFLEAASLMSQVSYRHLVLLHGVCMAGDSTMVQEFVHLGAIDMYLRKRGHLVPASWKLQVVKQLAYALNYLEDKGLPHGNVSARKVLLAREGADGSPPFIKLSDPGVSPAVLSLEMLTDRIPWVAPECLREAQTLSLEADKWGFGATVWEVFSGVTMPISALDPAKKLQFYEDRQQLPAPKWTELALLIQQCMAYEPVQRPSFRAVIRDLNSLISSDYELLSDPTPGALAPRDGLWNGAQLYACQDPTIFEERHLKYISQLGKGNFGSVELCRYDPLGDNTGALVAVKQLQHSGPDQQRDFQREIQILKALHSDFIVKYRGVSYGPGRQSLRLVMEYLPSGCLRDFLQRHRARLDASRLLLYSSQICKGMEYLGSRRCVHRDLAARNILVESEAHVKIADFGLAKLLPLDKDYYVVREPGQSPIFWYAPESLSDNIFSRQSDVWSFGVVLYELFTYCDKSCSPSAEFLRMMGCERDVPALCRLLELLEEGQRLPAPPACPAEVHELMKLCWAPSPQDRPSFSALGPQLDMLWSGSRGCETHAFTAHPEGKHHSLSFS
Protocol: Assay 1: Biochemical JAK and Tyk2 Kinase Assays A panel of four LanthaScreen JAK biochemical assays (JAK1, 2, 3 and Tyk2) were carried in a common kinase reaction buffer (50 mM HEPES, pH 7.5, 0.01% Brij-35, 10 mM MgCl2, and 1 mM EGTA). Recombinant GST-tagged JAK enzymes and a GFP-tagged STAT1 peptide substrate were obtained from Life Technologies. Serially or discretely diluted compounds were pre-incubated with each of the four JAK enzymes and the substrate in white 384-well microplates (Corning) at ambient temperature for 1 h. ATP was subsequently added to initiate the kinase reactions in 10 μL total volume, with 1% DMSO. […] Kinase reactions were allowed to proceed for 1 hour at ambient temperature before a 10 μL preparation of EDTA (10 mM final concentration) and Tb-anti-pSTAT1 ([…]) antibody (Life Technologies, 2 nM final concentration) in TR-FRET dilution buffer (Life Technologies) was added. The plates were allowed to incubate at ambient temperature for 1 h before being read on the EnVision reader (Perkin Elmer). Emission ratio signals (520 nm/495 nm) were recorded and utilized to calculate the percent inhibition values based on DMSO and background controls. For dose-response analysis, percent inhibition data were plotted vs. compound concentrations, and IC50 values were determined from a 4-parameter robust fit model with the Prism software (GraphPad Software). Results were expressed as pIC50 (negative logarithm of IC50) and subsequently converted to pKi (negative logarithm of dissociation constant, Ki) using the Cheng-Prusoff equation.

Row | Structure (SMILES) | IC50 [1] [nM] | Ki [2] [nM]
1 | CCS(=O)(=O)N1[C@@H]2CCC[C@H]1C[C@H](N(C)c1nc(COC(C)=O)c(F)c(Nc3cc(C)[nH]n3)n1)C2 [Compound 1, (2-(((1R,3s,5S)-9-(ethylsulfonyl)-9-azabicyclo[3.3.1]nonan-3-yl)(methyl)amino)-5-fluoro-6-((5-methyl-1H-pyrazol-3-yl)amino)pyrimidin-4-yl)methyl acetate] | ≤ 10 | 0.1 to 1
2 | CCC(=O)OCc1nc(N(C)[C@@H]2C[C@H]3CCC[C@@H](C2)N3S(=O)(=O)CC)nc(Nc2cc(C)[nH]n2)c1F [Compound 2, (2-(((1R,3s,5S)-9-(ethylsulfonyl)-9-azabicyclo[3.3.1]nonan-3-yl)(methyl)amino)-5-fluoro-6-((5-methyl-1H-pyrazol-3-yl)amino)pyrimidin-4-yl)methyl propionate] | ≤ 10 | 0.1 to 1
3 | CCCC(=O)OCc1nc(N(C)[C@@H]2C[C@H]3CCC[C@@H](C2)N3S(=O)(=O)CC)nc(Nc2cc(C)[nH]n2)c1F [Compound 3, (2-(((1R,3s,5S)-9-(ethylsulfonyl)-9-azabicyclo[3.3.1]nonan-3-yl)(methyl)amino)-5-fluoro-6-((5-methyl-1H-pyrazol-3-yl)amino)pyrimidin-4-yl)methyl butyrate] | ≤ 10 | 1 to 10
4 | CCCCC(=O)OCc1nc(N(C)[C@@H]2C[C@H]3CCC[C@@H](C2)N3S(=O)(=O)CC)nc(Nc2cc(C)[nH]n2)c1F [Compound 4, (2-(((1R,3s,5S)-9-(ethylsulfonyl)-9-azabicyclo[3.3.1]nonan-3-yl)(methyl)amino)-5-fluoro-6-((5-methyl-1H-pyrazol-3-yl)amino)pyrimidin-4-yl)methyl pentanoate] | ≤ 10 | 1 to 10
5 | CCCCCCC(=O)OCc1nc(N(C)[C@@H]2C[C@H]3CCC[C@@H](C2)N3S(=O)(=O)CC)nc(Nc2cc(C)[nH]n2)c1F [Compound 5, (2-(((1R,3s,5S)-9-(ethylsulfonyl)-9-azabicyclo[3.3.1]nonan-3-yl)(methyl)amino)-5-fluoro-6-((5-methyl-1H-pyrazol-3-yl)amino)pyrimidin-4-yl)methyl heptanoate] | ≤ 10 | 10 to 100
6 | CCS(=O)(=O)N1[C@@H]2CCC[C@H]1C[C@H](N(C)c1nc(COC(=O)OC3CCCCC3)c(F)c(Nc3cc(C)[nH]n3)n1)C2 [Compound 6, cyclohexyl ((2-(((1R,3s,5S)-9-(ethylsulfonyl)-9-azabicyclo[3.3.1]nonan-3-yl)(methyl)amino)-5-fluoro-6-((5-methyl-1H-pyrazol-3-yl)amino)pyrimidin-4-yl)methyl) carbonate] | 10 to 31.6 | 10 to 100
7 | CCS(=O)(=O)N1[C@@H]2CCC[C@H]1C[C@H](N(C)c1nc(COC(=O)C3CCOCC3)c(F)c(Nc3cc(C)[nH]n3)n1)C2 [Compound 7, (2-(((1R,3s,5S)-9-(ethylsulfonyl)-9-azabicyclo[3.3.1]nonan-3-yl)(methyl)amino)-5-fluoro-6-((5-methyl-1H-pyrazol-3-yl)amino)pyrimidin-4-yl)methyl tetrahydro-2H-pyran-4-carboxylate] | ≤ 10 | 0.1 to 1
8 | CCS(=O)(=O)N1[C@@H]2CCC[C@H]1C[C@H](N(C)c1nc(COC(=O)OC(C)C)c(F)c(Nc3cc(C)[nH]n3)n1)C2 [Compound 8, (2-(((1R,3s,5S)-9-(ethylsulfonyl)-9-azabicyclo[3.3.1]nonan-3-yl)(methyl)amino)-5-fluoro-6-((5-methyl-1H-pyrazol-3-yl)amino)pyrimidin-4-yl)methyl isopropyl carbonate] | ≤ 10 | 1 to 10
9 | CCS(=O)(=O)N1[C@@H]2CCC[C@H]1C[C@H](N(C)c1nc(COC(=O)OC3CCOCC3)c(F)c(Nc3cc(C)[nH]n3)n1)C2 [Compound 9, (2-(((1R,3s,5S)-9-(ethylsulfonyl)-9-azabicyclo[3.3.1]nonan-3-yl)(methyl)amino)-5-fluoro-6-((5-methyl-1H-pyrazol-3-yl)amino)pyrimidin-4-yl)methyl (tetrahydro-2H-pyran-4-yl) carbonate] | ≤ 10 | 1 to 10
10 | CCS(=O)(=O)N1[C@@H]2CCC[C@H]1C[C@H](N(C)c1nc(CO)c(F)c(Nc3cc(C)[nH]n3)n1)C2 [Compound M, (2-(((1R,3s,5S)-9-(ethylsulfonyl)-9-azabicyclo[3.3.1]nonan-3-yl)(methyl)amino)-5-fluoro-6-((5-methyl-1H-pyrazol-3-yl)amino)pyrimidin-4-yl)methanol] | ≤ 10 | 0.1 to 1
